In PubChem BioAssay (NCI):
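96-well plates; 48 h exposure; 5 concentrations. Endpoints by linear interpolation between flanking doses. Not reached: highest tested concentration assigned. Definition used: TGI = concentration required for complete inhibition of growth.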

Key:
Test in all cases: growth of human tumour cells (NCI), 48 h
SF-295 CNS = test system: SF-295 CNS
SW-620 colon = test system: SW-620 colon
NCI-H460 lung = test system: NCI-H460 lung
OVCAR-3 ovarian = test system: OVCAR-3 ovarian
IGROV1 ovarian = test system: IGROV1 ovarian
NCI-H522 lung = test system: NCI-H522 lung
CCRF-CEM leukemia = test system: CCRF-CEM leukemia
MDA-N = test system: MDA-N
NCI-H23 lung = test system: NCI-H23 lung
RXF 393 renal = test system: RXF 393 renal
786-0 renal = test system: 786-0 renal
MDA-MB-435 = test system: MDA-MB-435
T-47D breast = test system: T-47D breast
COLO 205 colon = test system: COLO 205 colon
LOX IMVI melanoma = test system: LOX IMVI melanoma
MOLT-4 leukemia = test system: MOLT-4 leukemia
RPMI-8226 leukemia = test system: RPMI-8226 leukemia
HOP-62 NSCLC = test system: HOP-62 NSCLC
MALME-3M melanoma = test system: MALME-3M melanoma

Compound	TGI (SF-295 CNS) [µM]	TGI (SW-620 colon) [µM]	TGI (NCI-H460 lung) [µM]	TGI (OVCAR-3 ovarian) [µM]	TGI (IGROV1 ovarian) [µM]	TGI (NCI-H522 lung) [µM]	TGI (CCRF-CEM leukemia) [µM]	TGI (MDA-N) [µM]	TGI (NCI-H23 lung) [µM]	TGI (RXF 393 renal) [µM]	TGI (786-0 renal) [µM]	TGI (MDA-MB-435) [µM]	TGI (T-47D breast) [µM]	TGI (COLO 205 colon) [µM]	TGI (LOX IMVI melanoma) [µM]	TGI (MOLT-4 leukemia) [µM]	TGI (RPMI-8226 leukemia) [µM]	TGI (HOP-62 NSCLC) [µM]	TGI (MALME-3M melanoma) [µM]
C1CNCCNCCN1	> 100	> 100	> 100	> 100	> 100	> 100	> 100	> 100	> 100	> 100	> 100	> 100	> 100	> 100	> 100	> 100	> 100	> 100	
O=C(OCC1OC2OC(c3ccccc3)(n3ccc4c([N+](=O)[O-])ccnc43)OC2C1OC(=O)c1ccccc1)c1ccccc1 (configuration not stated)	> 100	> 100	> 100	> 100	> 100		> 100	> 100	> 100		> 100	> 100	> 100		> 100	> 100	> 100	> 100	> 100
Cc1cc(C)cc(Nc2cc(=O)[nH]c(=O)[nH]2)c1	> 100	> 100	> 100	> 100	> 100		> 100	> 100	> 100	> 100	> 100	> 100	> 100	> 100	> 100	> 100	> 100	> 100	> 100
Nc1cccc(Nc2nc3ccccc3nc2NS(=O)(=O)c2ccccc2)c1	> 100	44.2	71.1	47.3	86.9		46.7	> 100	42.6	38.7	> 100	62.4	> 100	29.7	47.3	48.9	52.5	96.2	72.7
CCOC(=O)/C=C(/C(=O)OCC)n1ccc(N)nc1=O	> 100	> 100	> 100	> 100	> 100	54.8	76	> 100	> 100		> 100	> 100	> 100	> 100	> 100	> 100	> 100	> 100	> 100
O=C(O)CC[N+]1=CCC(c2ccccc2)(c2ccccc2)O1	> 100	> 100	> 100	> 100	> 100	> 100		> 100	> 100	> 100	> 100	> 100	> 100	> 100		> 100		> 100	
Cc1cc(C2(O)C=C(C(C)(C)C)C(=O)C(C(C)(C)C)=C2)c(C)cc1C1(O)C=C(C(C)(C)C)C(=O)C(C(C)(C)C)=C1	> 100	> 100			> 100	> 100	> 100	> 100	> 100		> 100		> 100	> 100	> 100	> 100	> 100	> 100	> 100
O=c1nc2c(c(-c3ccccc3Cl)[nH]1)COC/C2=C\c1ccccc1Cl	> 100	> 100	> 100	> 100	> 100		> 100	> 100	> 100	> 100	> 100	> 100	> 100	> 100	> 100	> 100	> 100	> 100	
Nc1c(Cl)ncnc1N[C@@H]1C[C@H]1CO	> 100	> 100	> 100	> 100	> 100	> 100	> 100	> 100	> 100	> 100	> 100	> 100	> 100	> 100	> 100	> 100		> 100	
O=C1c2ccccc2-c2nc(-c3cccc([N+](=O)[O-])c3)nnc21	> 100	62.8	24.8		> 100	> 100	> 100	5.49	50.5	> 100	> 100	4.05	> 100	12.6		> 100	> 100		38.4
O=C1CCCCC(=O)OC2(CCCCC2=O)CC1 (configuration not stated)	> 100	> 100	> 100	> 100	> 100	> 100	> 100	> 100	> 100	> 100	> 100	> 100	> 100	> 100		> 100	> 100	> 100	> 100
O=c1c2c([N+](=O)[O-])cccc2nc2[nH]c3ccccc3n12	> 75	> 75	> 75	70.3	37.1		> 75	> 75	> 75	30.4	> 75	> 75	63.4	> 75	> 75	> 75	> 75	> 75	> 75
NCCSc1nc2ccccc2c(=O)n1-c1ccccc1	> 100	> 100		> 100	> 100	> 100	> 100	> 100	> 100		> 100	> 100	> 100	> 100	> 100			> 100	> 100
CC(=O)N1N=C(c2ccc3ccccc3c2O)CC1C(=O)c1ccco1 (configuration not stated)	> 100	> 100	> 100	> 100	> 100	76.6	24.9	> 100	> 100	> 100	> 100	> 100	> 100	67.6		24.4	85	> 100	> 100
O=C(Cc1ccccc1)NN1C(=O)/C(=C\c2cccc(O)c2)SC1=Nc1ccccc1	> 100	> 100	> 100	> 100	> 100			> 100	> 100	> 100	> 100	> 100	> 100	> 100				> 100	
COC(=O)[C@@H]1CCCN1CCN1CCC[C@H]1C(=O)OC	> 100	> 100	> 100	> 100		> 100		> 100	> 100	> 100	> 100	> 100	> 100	> 100		> 100	> 100	> 100	> 100
COC(=O)C1=C2SCc3cccc(c3)CSC3=C(C(=O)OC)SC(=C(S2)S1)S3	> 100	> 100	> 100	> 100			> 100	> 100		> 100	> 100	> 100	> 100	> 100		> 100	> 100	> 100	
Cc1cn(C(Cc2ccccc2)OCCO)c(=O)[nH]c1=O (configuration not stated)	> 100	> 100	> 100	> 100	> 100		> 100	> 100	> 100	> 100	> 100	> 100	> 100	> 100	> 100	> 100	> 100	> 100	
Cc1ccc2nc(Cl)c(/C=N/N3C(=O)/C(=C/c4ccccc4S)N=C3c3ccccc3)cc2c1	84	> 100	> 100	28.2	> 100		> 100	40.5			> 100	31.8	> 100	> 100	> 100	15.1	68.1	> 100	
CN(O)C(=O)c1cccc(Cl)c1	> 100	> 100	> 100	> 100	> 100	> 100	> 100	> 100	> 100	> 100	> 100	> 100	> 100	> 100	> 100	> 100	> 100	> 100	
O=c1[nH]nc(Cc2ccc([N+](=O)[O-])cc2)n1CCO	> 100	> 100	> 100	> 100	> 100	> 100		> 100	> 100		> 100	> 100	> 100	> 100	> 100		> 100		> 100
N#Cc1c(-c2ccccc2)nc(-c2ccccc2)sc1=S	> 100	> 100	> 100	> 100	> 100		> 100	> 100	> 100	> 100	> 100	> 100	> 100	> 100	> 100		> 100	> 100	> 100
